# Experimental data published in the kinase profiling compilation of Christmann-Franck et al. (2016).
# Values joined by “and” are separate entries in the source; they are usually repeats but may differ in a detail not shown here. Equal values may be shown once.
# Assays:
# Assay in all cases: radiometric filter-binding kinase assay, Kinase HotSpot
# Conditions in all cases: compound 0.5 µM; ATP 10 µM
# PIM3 (human) = PIM3 (human) (UniProt Q86V86)
# MINK1 (human) = MINK1 (human) (UniProt Q8N4C8)
# PTK2B (human) = PTK2B (human) (UniProt Q14289)
# TAOK1 (human) = TAOK1 (human) (UniProt Q7L7X3)
# LYN (human) = LYN (human) (UniProt P07948)
# GRK4 (human) = GRK4 (human) (UniProt P32298)
# AKT1 (human) = AKT1 (human) (UniProt P31749)
# CSF1R (human) = CSF1R (human) (UniProt P07333)
# RAF1 (human) = RAF1 (human) (UniProt P04049)
# PIM1 (human) = PIM1 (human) (UniProt P11309)
# BLK (human) = BLK (human) (UniProt P51451)
# ALK (human) = ALK (human) (UniProt Q9UM73)
# EPHA7 (human) = EPHA7 (human) (UniProt Q15375)
# MAP2K1 (human) = MAP2K1 (human) (UniProt Q02750)
# FGFR4 (human) = FGFR4 (human) (UniProt P22455)
# BRSK1 (human) = BRSK1 (human) (UniProt Q8TDC3)
# MAP2K2 (human) = MAP2K2 (human) (UniProt P36507)
# EPHA1 (human) = EPHA1 (human) (UniProt P21709)
# PHKG1 (human) = PHKG1 (human) (UniProt Q16816)
# CDK1 CCNB1 (human) = CDK1 CCNB1 (human) (UniProt P06493+P14635)
# SGK2 (human) = SGK2 (human) (UniProt Q9HBY8)
# MAP3K11 (human) = MAP3K11 (human) (UniProt Q16584)
# EPHB3 (human) = EPHB3 (human) (UniProt P54753)
# PLK1 (human) = PLK1 (human) (UniProt P53350)
# MAP3K14 (human) = MAP3K14 (human) (UniProt Q99558)
# MARK4 (human) = MARK4 (human) (UniProt Q96L34)
# DSTYK (human) = DSTYK (human) (UniProt Q6XUX3)
# PRKACA (human) = PRKACA (human) (UniProt P17612)
# NEK6 (human) = NEK6 (human) (UniProt Q9HC98)
# OXSR1 (human) = OXSR1 (human) (UniProt O95747)
# HIPK1 (human) = HIPK1 (human) (UniProt Q86Z02)
# SIK2 (human) = SIK2 (human) (UniProt Q9H0K1)
# DCLK2 (human) = DCLK2 (human) (UniProt Q8N568)
# CAMKK2 (human) = CAMKK2 (human) (UniProt Q96RR4)
# CDK5 CDK5R1 p25 (human) = CDK5 CDK5R1 p25 (human) (UniProt Q00535+Q15078)
# CAMKK1 (human) = CAMKK1 (human) (UniProt Q8N5S9)
# MAPK1 (human) = MAPK1 (human) (UniProt P28482)
# MAP3K2 (human) = MAP3K2 (human) (UniProt Q9Y2U5)
# ACVRL1 (human) = ACVRL1 (human) (UniProt P37023)
# ITK (human) = ITK (human) (UniProt Q08881)
# MAPK9 (human) = MAPK9 (human) (UniProt P45984)
# EPHB4 (human) = EPHB4 (human) (UniProt P54760)
# Chain of DCLK2 (human) (Q8N568 whole entry, looked up): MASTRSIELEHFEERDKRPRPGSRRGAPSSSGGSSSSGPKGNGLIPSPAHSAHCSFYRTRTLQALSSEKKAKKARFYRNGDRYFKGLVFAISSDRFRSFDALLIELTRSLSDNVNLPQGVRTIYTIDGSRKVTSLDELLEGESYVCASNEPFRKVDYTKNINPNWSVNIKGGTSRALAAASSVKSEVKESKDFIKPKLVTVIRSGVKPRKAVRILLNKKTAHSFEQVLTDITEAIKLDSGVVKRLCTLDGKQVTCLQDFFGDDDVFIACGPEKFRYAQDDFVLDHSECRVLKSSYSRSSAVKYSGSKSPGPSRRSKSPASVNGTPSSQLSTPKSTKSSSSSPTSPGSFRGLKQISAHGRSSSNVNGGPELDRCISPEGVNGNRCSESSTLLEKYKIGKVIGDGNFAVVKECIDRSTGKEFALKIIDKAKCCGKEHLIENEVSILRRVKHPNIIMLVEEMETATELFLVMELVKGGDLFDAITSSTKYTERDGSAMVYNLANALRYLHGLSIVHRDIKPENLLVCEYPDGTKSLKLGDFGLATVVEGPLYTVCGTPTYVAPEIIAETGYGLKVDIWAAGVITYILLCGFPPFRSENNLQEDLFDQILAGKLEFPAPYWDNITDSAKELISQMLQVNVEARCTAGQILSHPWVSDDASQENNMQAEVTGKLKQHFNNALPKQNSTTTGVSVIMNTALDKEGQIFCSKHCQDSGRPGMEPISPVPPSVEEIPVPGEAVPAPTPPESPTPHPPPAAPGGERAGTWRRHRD
# Chain of HIPK1 (human) (Q86Z02 whole entry, looked up): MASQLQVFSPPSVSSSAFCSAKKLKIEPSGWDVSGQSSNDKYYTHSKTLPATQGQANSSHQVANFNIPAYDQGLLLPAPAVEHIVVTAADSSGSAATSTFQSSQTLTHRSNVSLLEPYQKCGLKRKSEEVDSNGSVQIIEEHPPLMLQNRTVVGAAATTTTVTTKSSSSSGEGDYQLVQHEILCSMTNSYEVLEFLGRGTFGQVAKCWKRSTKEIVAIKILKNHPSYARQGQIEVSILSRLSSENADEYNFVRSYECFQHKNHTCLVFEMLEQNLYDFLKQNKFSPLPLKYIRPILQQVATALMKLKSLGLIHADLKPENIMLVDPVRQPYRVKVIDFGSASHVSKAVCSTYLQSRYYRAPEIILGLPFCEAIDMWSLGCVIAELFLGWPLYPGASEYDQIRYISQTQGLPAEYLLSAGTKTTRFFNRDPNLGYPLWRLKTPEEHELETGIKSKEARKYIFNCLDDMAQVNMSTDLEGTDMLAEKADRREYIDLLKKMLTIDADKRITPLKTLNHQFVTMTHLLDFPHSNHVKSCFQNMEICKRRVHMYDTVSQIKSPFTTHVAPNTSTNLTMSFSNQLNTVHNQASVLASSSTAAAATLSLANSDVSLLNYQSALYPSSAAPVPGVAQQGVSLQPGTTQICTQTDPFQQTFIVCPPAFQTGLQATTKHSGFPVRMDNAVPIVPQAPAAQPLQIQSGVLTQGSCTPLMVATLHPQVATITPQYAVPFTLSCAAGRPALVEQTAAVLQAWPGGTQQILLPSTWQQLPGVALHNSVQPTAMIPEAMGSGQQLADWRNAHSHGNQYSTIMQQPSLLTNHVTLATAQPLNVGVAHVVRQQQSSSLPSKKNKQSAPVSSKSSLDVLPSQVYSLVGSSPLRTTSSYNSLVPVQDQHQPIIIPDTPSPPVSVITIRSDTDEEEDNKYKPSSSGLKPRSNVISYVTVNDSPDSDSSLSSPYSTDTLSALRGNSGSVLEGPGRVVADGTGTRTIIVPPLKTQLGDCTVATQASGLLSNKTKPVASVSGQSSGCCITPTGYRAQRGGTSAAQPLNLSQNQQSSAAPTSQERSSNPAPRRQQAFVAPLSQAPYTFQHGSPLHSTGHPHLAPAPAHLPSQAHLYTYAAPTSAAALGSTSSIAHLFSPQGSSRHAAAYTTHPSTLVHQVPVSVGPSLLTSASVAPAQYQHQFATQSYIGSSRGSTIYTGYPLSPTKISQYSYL
# Chain of EPHA1 (human) (P21709 whole entry, looked up): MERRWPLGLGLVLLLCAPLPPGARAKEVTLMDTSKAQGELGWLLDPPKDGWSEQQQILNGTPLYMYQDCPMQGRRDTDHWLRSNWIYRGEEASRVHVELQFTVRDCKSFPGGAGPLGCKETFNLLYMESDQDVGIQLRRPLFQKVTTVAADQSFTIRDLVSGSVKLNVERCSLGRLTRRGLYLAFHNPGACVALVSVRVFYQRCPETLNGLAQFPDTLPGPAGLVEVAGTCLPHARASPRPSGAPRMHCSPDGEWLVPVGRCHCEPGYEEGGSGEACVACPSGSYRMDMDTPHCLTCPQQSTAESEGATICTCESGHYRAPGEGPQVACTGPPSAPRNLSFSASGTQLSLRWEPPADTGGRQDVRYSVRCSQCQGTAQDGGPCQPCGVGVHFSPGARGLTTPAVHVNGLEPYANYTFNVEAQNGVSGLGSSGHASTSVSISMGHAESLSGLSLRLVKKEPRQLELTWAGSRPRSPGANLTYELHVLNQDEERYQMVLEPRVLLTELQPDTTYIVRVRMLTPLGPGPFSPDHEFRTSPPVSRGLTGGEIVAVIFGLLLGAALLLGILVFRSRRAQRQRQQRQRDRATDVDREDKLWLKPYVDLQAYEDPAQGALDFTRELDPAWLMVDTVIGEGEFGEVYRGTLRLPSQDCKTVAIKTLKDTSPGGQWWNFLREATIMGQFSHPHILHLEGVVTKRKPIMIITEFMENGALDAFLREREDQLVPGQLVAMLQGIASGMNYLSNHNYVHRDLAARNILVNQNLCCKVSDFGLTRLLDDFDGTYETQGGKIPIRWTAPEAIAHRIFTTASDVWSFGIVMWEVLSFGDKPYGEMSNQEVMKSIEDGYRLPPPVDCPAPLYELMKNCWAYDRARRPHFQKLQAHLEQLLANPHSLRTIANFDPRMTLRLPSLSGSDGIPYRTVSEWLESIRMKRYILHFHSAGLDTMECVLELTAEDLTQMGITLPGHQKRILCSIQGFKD
# Chain of MARK4 (human) (Q96L34 whole entry, looked up): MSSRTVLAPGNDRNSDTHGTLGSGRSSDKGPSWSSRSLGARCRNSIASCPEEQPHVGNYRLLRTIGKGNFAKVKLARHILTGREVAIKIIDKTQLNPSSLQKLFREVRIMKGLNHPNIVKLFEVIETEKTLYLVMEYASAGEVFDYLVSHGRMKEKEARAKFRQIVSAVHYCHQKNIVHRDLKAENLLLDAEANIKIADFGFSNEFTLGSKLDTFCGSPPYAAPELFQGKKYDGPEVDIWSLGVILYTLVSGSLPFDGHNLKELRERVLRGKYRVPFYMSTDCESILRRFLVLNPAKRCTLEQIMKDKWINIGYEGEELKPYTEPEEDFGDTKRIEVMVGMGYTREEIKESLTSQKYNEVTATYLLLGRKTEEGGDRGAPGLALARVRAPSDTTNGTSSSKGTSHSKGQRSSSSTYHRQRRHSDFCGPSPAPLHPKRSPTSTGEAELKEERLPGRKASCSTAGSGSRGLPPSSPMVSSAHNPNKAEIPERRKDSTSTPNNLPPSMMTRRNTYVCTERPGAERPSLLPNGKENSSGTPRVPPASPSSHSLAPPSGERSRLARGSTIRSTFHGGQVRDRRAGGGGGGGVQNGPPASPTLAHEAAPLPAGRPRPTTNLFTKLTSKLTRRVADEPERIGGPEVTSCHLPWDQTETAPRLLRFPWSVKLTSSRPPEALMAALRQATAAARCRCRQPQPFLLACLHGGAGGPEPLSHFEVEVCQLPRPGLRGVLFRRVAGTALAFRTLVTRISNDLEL
# Chain of MAP3K11 (human) (Q16584 whole entry, looked up): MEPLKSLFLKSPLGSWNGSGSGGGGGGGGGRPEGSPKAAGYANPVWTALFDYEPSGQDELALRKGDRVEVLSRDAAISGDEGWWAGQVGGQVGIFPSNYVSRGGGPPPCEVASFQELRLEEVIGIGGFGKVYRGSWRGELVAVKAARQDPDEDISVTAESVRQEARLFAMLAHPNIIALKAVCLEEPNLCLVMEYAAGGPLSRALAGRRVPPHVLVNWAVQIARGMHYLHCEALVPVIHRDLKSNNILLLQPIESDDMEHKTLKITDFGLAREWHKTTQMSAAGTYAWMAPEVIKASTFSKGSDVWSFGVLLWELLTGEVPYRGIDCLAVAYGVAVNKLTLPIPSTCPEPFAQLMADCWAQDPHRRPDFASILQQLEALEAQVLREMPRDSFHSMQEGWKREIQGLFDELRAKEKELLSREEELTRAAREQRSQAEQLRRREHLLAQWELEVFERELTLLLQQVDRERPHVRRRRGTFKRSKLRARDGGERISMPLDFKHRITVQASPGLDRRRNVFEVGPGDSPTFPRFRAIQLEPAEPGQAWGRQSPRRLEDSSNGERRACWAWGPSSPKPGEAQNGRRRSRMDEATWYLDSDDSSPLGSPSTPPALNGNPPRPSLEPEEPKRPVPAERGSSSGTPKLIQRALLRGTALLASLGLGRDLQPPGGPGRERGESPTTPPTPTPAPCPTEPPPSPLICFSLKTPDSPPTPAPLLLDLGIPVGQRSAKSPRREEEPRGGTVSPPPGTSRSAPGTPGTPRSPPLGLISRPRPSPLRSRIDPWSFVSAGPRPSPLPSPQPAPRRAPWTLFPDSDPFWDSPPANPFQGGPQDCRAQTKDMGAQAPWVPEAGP
# Chain of CAMKK1 (human) (Q8N5S9 whole entry, looked up): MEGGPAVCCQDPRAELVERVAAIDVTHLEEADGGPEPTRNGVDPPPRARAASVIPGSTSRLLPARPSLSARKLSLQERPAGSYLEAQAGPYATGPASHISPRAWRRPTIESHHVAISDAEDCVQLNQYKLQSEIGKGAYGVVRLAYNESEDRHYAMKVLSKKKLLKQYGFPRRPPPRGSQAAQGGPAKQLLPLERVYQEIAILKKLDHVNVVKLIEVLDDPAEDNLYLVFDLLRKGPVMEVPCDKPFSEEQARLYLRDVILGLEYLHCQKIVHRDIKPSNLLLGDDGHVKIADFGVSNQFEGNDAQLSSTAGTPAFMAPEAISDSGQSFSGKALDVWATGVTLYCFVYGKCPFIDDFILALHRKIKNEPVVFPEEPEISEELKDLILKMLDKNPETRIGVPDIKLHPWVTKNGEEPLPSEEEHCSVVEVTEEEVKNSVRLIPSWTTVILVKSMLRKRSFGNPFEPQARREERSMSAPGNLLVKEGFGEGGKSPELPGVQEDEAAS
smiles,measurement,setting,value
O=C(c1ccccc1)c1ccc(N2CCOCC2)cc1O,residual activity,PIM3 (human),98.9%
same,residual activity,MINK1 (human),91.1%
same,residual activity,PTK2B (human),102%
same,residual activity,TAOK1 (human),100%
same,residual activity,LYN (human),100% and 105%
same,residual activity,GRK4 (human),104%
same,residual activity,AKT1 (human),102%
same,residual activity,CSF1R (human),99.7%
same,residual activity,RAF1 (human),95.9%
same,residual activity,PIM1 (human),101%
same,residual activity,BLK (human),102%
same,residual activity,ALK (human),102%
same,residual activity,EPHA7 (human),98.4%
same,residual activity,MAP2K1 (human),98.1%
same,residual activity,FGFR4 (human),106%
same,residual activity,BRSK1 (human),103%
same,residual activity,MAP2K2 (human),101%
same,residual activity,EPHA1 (human),89.1%
same,residual activity,PHKG1 (human),97.4%
same,residual activity,CDK1 CCNB1 (human),92.3%
same,residual activity,SGK2 (human),105%
same,residual activity,MAP3K11 (human),93.2%
same,residual activity,EPHB3 (human),92.2%
same,residual activity,PLK1 (human),104%
same,residual activity,MAP3K14 (human),75.1%
same,residual activity,MARK4 (human),100%
same,residual activity,DSTYK (human),86.2%
same,residual activity,PRKACA (human),98.3%
same,residual activity,NEK6 (human),95%
same,residual activity,OXSR1 (human),110%
same,residual activity,HIPK1 (human),104%
same,residual activity,SIK2 (human),100%
same,residual activity,DCLK2 (human),103%
same,residual activity,CAMKK2 (human),111%
same,residual activity,CDK5 CDK5R1 p25 (human),98.8%
same,residual activity,CAMKK1 (human),107%
same,residual activity,MAPK1 (human),96.7%
same,residual activity,MAP3K2 (human),102%
same,residual activity,ACVRL1 (human),105%
same,residual activity,ITK (human),99.5%
same,residual activity,MAPK9 (human),98.9%
CCCCc1c(-c2ccc(O)cc2)[nH]c2nccnc12,residual activity,PIM3 (human),72.8%
same,residual activity,MINK1 (human),82%
same,residual activity,PTK2B (human),99%
same,residual activity,TAOK1 (human),70.9%
same,residual activity,LYN (human),106% and 87.3%
same,residual activity,GRK4 (human),101%
same,residual activity,CSF1R (human),38.4%
same,residual activity,RAF1 (human),106%
same,residual activity,PIM1 (human),83.8%
same,residual activity,BLK (human),85%
same,residual activity,ALK (human),85%
same,residual activity,EPHA7 (human),89%
same,residual activity,EPHB4 (human),86%
same,residual activity,MAP2K1 (human),94.8%
same,residual activity,FGFR4 (human),91.8%
same,residual activity,BRSK1 (human),89.1%
same,residual activity,MAP2K2 (human),84.7%
same,residual activity,EPHA1 (human),68.8%
same,residual activity,PHKG1 (human),86.7%
same,residual activity,CDK1 CCNB1 (human),45.2%
same,residual activity,SGK2 (human),99.4%
same,residual activity,MAP3K11 (human),32.5%
same,residual activity,PLK1 (human),96.6%
same,residual activity,MAP3K14 (human),95.4%
same,residual activity,MARK4 (human),84.6%
same,residual activity,DSTYK (human),88.9%
same,residual activity,PRKACA (human),89.7%
same,residual activity,NEK6 (human),123%
same,residual activity,OXSR1 (human),95.5%
same,residual activity,HIPK1 (human),97.6%
same,residual activity,SIK2 (human),95.9%
same,residual activity,DCLK2 (human),99.7%
same,residual activity,CAMKK2 (human),91.7%
same,residual activity,CAMKK1 (human),89.7%
same,residual activity,MAPK1 (human),106%
same,residual activity,MAP3K2 (human),77.2%
same,residual activity,ACVRL1 (human),76.2%
same,residual activity,ITK (human),104%
same,residual activity,MAPK9 (human),90.2%
Nc1ncnc2c1cnn2-c1ccccc1,residual activity,PIM3 (human),91.4%
same,residual activity,MINK1 (human),88.9%
same,residual activity,PTK2B (human),108%
same,residual activity,TAOK1 (human),89.5%
same,residual activity,LYN (human),102% and 99.7%
same,residual activity,GRK4 (human),106%
same,residual activity,AKT1 (human),103%
same,residual activity,CSF1R (human),105%
same,residual activity,RAF1 (human),95.4%
same,residual activity,PIM1 (human),99.4%
same,residual activity,BLK (human),100%
same,residual activity,ALK (human),90.9%
same,residual activity,EPHA7 (human),99.2%
same,residual activity,EPHB4 (human),103%
same,residual activity,MAP2K1 (human),93.9%
same,residual activity,FGFR4 (human),94.8%
same,residual activity,BRSK1 (human),90.2%
same,residual activity,MAP2K2 (human),96.9%
same,residual activity,EPHA1 (human),92.4%
same,residual activity,PHKG1 (human),94.2%
same,residual activity,SGK2 (human),98.4%
same,residual activity,MAP3K11 (human),96%
same,residual activity,EPHB3 (human),93.5%
same,residual activity,PLK1 (human),98.9%
same,residual activity,MAP3K14 (human),120%
same,residual activity,MARK4 (human),89.7%
same,residual activity,DSTYK (human),94.5%
same,residual activity,NEK6 (human),114%
same,residual activity,OXSR1 (human),92.6%
same,residual activity,HIPK1 (human),98.4%
same,residual activity,SIK2 (human),99.8%
same,residual activity,DCLK2 (human),101%
same,residual activity,CAMKK2 (human),86.8%
same,residual activity,CDK5 CDK5R1 p25 (human),102%
same,residual activity,CAMKK1 (human),84.8%
same,residual activity,MAPK1 (human),85.4%
same,residual activity,MAP3K2 (human),89.5%
same,residual activity,ACVRL1 (human),109%
same,residual activity,ITK (human),92.7%
same,residual activity,MAPK9 (human),88.2%
